Patent US20260365628A1, “SUBSTITUTED 3,4-DIHYDROQUINOLINONE INHIBITORS OF TSHR” (Septerna, Inc., priority 2022, published 2026)

target: T1, hTSHR (Homo sapiens, UniProt P16473); experiment: hTSHR TR-FRET cAMP Assay (inhibition of M22-stimulated cAMP production); assay type: cell-based; settings: not given
T1 construct: expressed in transfected cells
How it was run: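 Readout was a cAMP HTRF ratio of 655/620 nm after lysis, scaled between the EC80 M22 signal (0% inhibition) and no-agonist vehicle (100%). Frozen induced Expi293F-hTSHR cells saw test compounds (0.5% DMSO) for 15 min at 37 °C before 30 min of M22 stimulation at EC80.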

T1 sequence (P16473 21-764): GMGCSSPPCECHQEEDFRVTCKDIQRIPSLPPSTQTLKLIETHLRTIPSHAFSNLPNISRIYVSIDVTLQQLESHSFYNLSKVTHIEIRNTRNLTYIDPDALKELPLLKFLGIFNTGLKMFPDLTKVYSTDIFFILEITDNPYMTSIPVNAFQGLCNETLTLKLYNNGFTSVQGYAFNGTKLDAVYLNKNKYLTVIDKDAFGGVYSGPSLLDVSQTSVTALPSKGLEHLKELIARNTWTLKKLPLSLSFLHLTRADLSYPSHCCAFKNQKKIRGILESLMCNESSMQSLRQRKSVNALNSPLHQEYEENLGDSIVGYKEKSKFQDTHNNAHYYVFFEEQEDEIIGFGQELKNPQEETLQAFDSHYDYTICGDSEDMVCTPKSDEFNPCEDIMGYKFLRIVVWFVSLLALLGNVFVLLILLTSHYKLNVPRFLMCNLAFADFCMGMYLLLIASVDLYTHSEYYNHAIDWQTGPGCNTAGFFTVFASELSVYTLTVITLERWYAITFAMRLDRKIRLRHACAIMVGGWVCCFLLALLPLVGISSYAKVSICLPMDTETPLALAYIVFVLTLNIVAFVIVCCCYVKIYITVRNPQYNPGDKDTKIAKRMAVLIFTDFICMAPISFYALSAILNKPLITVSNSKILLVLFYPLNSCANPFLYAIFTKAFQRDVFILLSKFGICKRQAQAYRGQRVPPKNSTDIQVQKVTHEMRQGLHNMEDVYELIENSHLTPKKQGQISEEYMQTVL

For `C[C@@H](c1cccc(-c2ccccc2)c1)n1c(=O)cnc2cc(NC(=O)NC(C)(C)C)ccc21` [Example 112, (S)-1-(1-(1-([1,1′-biphenyl]-3-yl)ethyl)-2-oxo-1,2-dihydroquinoxalin-6-yl)-3-(tert-butyl)urea], the IC50 was 0.1 to 1 µM.

same assay, conditions: Expi293F Inducible cells stably expressing hTSHR; cAMP HTRF; stimulated with EC80 of anti-TSHR antibody M22; 15 min compound preincubation, 30 min at 37° C.; read-out: Activity (IC50 bins)

`CC(C)(C)NC(=O)Nc1ccc2c(c1)ncc(=O)n2Cc1cccc(CCCC(F)(F)F)n1` [Example 95, 1-(tert-butyl)-3-(2-oxo-1-((6-(4,4,4-trifluoro-butyl)pyri-din-2-yl)methyl)-1,2-dihydro-quinoxalin-6-yl)urea] and `C[C@@H](c1cccc(CCCC(F)(F)F)c1)n1c(=O)cnc2cc(NC(=O)NC(C)(C)C)ccc21` [Example 108, (S)-1-(tert-butyl)-3-(2-oxo-1-(1-(3-(4,4,4-trifluorobutyl)phenyl)ethyl)-1,2-dihydroquinoxalin-6-yl)urea] fall in the same range of IC50: 0.1 to 1 µM for the first, 0.1 to 1 µM for the second.

`CC(C)(C)NC(=O)Nc1ccc2c(c1)ncc(=O)n2Cc1cccc2c1OCCC2` [Example 96, 1-(tert-buty1)-3-(1-(chroman-8-ylmethyl)-2-oxo-1,2-dihydro-quinoxalin-6-yl)urea] and `CC(C)(C)NC(=O)Nc1ccc2c(c1)ncc(=O)n2Cc1cccc2c1CCCO2` [Example 97, 1-(tert-butyl)-3-(1-(chroman-5-ylmethyl)-2-oxo-1,2-di-hydro-quinoxalin-6-yl)urea] fall in the same range of IC50: 0.1 to 1 µM for the first, 0.1 to 1 µM for the second.

`C[C@@H](c1ccccc1)n1c(=O)cnc2cc(NC(=O)NC(C)(C)C)ccc21` [Example 98, (S)-1-(tert-butyl)-3-(2-oxo-1-(1-phenylethyl)-1,2-dihydroquinoxalin-6-yl)urea] and `C[C@@H](c1cccc(C(F)F)c1)n1c(=O)cnc2cc(NC(=O)NC(C)(C)C)ccc21` [Example 122, (S)-1-(tert-butyl)-3-(1-(1-(3-(difluoro-methyl)phenyl)ethyl)-2-oxo-1,2-dihydroquinoxalin-6-yl)urea] fall in the same range of IC50: 0.1 to 1 µM for the first, 0.1 to 1 µM for the second.

Compared with `C[C@@H](c1cccc(C(F)(F)F)c1)n1c(=O)cnc2cc(NC(=O)NC(C)(C)C)ccc21` [Example 99, (S)-1-(tert-butyl)-3-(2-oxo-1-(1-(3-(trifluoromethyl)phenyl)ethyl)-1,2-dihydroquinoxalin-6-yl)urea], `C[C@@H](c1cccc(OC(F)(F)F)c1)n1c(=O)cnc2cc(NC(=O)NC(C)(C)C)ccc21` [Example 100, (S)-1-(tert-butyl)-3-(2-oxo-1-(1-(3-(trifluoromethoxy)phe-nyl)ethyl)-1,2-dihydroquinoxalin-6-yl)urea] is lower in IC50: 0.1 to 1 µM for the first, under 0.1 µM for the second.

`C[C@@H](c1cc(Cl)cc(Cl)c1)n1c(=O)cnc2cc(NC(=O)NC(C)(C)C)ccc21` [Example 101, (S)-1-(tert-butyl)-3-(1-(1-(3,5-dichlorophenyl)ethyl)-2-oxo-1,2-dihydroquinoxalin-6-yl)urea] and `C[C@@H](c1cccc(OC(F)F)c1)n1c(=O)cnc2cc(NC(=O)NC(C)(C)C)ccc21` [Example 128, (S)-1-(tert-butyl)-3-(1-(1-(3-(difluoromethoxy)phe-nyl)ethyl)-2-oxo-1,2-dihydroquinoxalin-6-yl)urea] fall in the same range of IC50: 0.1 to 1 µM for the first, 0.1 to 1 µM for the second.

`C[C@@H](c1cccc(CC(F)(F)F)c1)n1c(=O)cnc2cc(NC(=O)NC(C)(C)C)ccc21` [Example 102, (S)-1-(tert-butyl)-3-(2-oxo-1-(1-(3-(2,2,2-trifluoroethyl)phe-nyl)ethyl)-1,2-dihydroquinoxalin-6-yl)urea] and `C[C@@H](c1cccc(CCOC(F)(F)F)c1)n1c(=O)cnc2cc(NC(=O)NC(C)(C)C)ccc21` [Example 110, (S)-1-(tert-butyl)-3-(2-oxo-1-(1-(3-(2-(tri-fluoromethoxy)ethyl)phenyl)ethyl)-1,2-dihydroquinoxalin-6-yl)urea] fall in the same range of IC50: 0.1 to 1 µM for the first, 0.1 to 1 µM for the second.

`C[C@@H](c1cccc(C(F)(F)F)n1)n1c(=O)cnc2cc(NC(=O)NC(C)(C)C)ccc21` [Example 103, (S)-1-(tert-butyl)-3-(2-oxo-1-(1-(6-(tri-fluoromethyl)pyridin-2-yl)ethyl)-1,2-dihydroquinoxalin-6-yl)urea] and `C[C@@H](c1cccc(OCCC(F)(F)F)c1)n1c(=O)cnc2cc(NC(=O)NC(C)(C)C)ccc21` [Example 109, (S)-1-(tert-butyl)-3-(2-oxo-1-(1-(3-(3,3,3-trifluoropropoxy)phenyl)ethyl)-1,2-dihydroquinoxalin-6-yl)urea] fall in the same range of IC50: 0.1 to 1 µM for the first, 0.1 to 1 µM for the second.

Compared with `C[C@@H](c1cc(OC(F)(F)F)ccc1F)n1c(=O)cnc2cc(NC(=O)NC(C)(C)C)ccc21` [Example 104, (S)-1-(tert-butyl)-3-(1-(1-(2-fluoro-5-(trifluoromethoxy)phe-nyl)ethyl)-2-oxo-1,2-dihydroquinoxalin-6-yl)urea], `C[C@@H](c1ccc(F)c(OC(F)(F)F)c1)n1c(=O)cnc2cc(NC(=O)NC(C)(C)C)ccc21` [Example 105, (S)-1-(tert-buty1)-3-(1-(1-(4-fluoro-3-(trifluoromethoxy)phe-nyl)ethyl)-2-oxo-1,2-dihydroquinoxalin-6-yl)urea] is lower in IC50: 0.1 to 1 µM for the first, under 0.1 µM for the second.

`C[C@@H](c1cccc(OC(F)(F)F)n1)n1c(=O)cnc2cc(NC(=O)NC3(C)CCC3)ccc21` [Example 106, (S)-1-(1-methylcyclobutyl)-3-(2-oxo-1-(1-(6-(trifluoromethoxy)pyri-din-2-yl)ethyl)-1,2-dihydroquinoxalin-6-yl)urea] and `C[C@@H](c1cccc2c1CCC2)n1c(=O)cnc2cc(NC(=O)NC(C)(C)C)ccc21` [Example 125, (S)-1-(tert-butyl)-3-(1-(1-(2,3-dihydro-1H-inden-4-yl)ethyl)-2-oxo-1,2-dihydroquinoxalin-6-yl)urea] fall in the same range of IC50: 0.1 to 1 µM for the first, 0.1 to 1 µM for the second.

First: CC(C)CCc1cccc([C@H](C)n2c(=O)cnc3cc(NC(=O)NC(C)(C)C)ccc32)c1 [Example 107, (S)-1-(tert-butyl)-3-(1-(1-(3-isopentylphenyl)ethyl)-2-oxo-1,2-dihydroquinoxalin-6-yl)urea]
Second: C[C@@H](c1cccc(CCC(C)(C)O)c1)n1c(=O)cnc2cc(NC(=O)NC(C)(C)C)ccc21 [Example 116, (S)-1-(tert-butyl)-3-(1-(1-(3-(3-hydroxy-3-methylbutyl)phenyl)ethyl)-2-oxo-1,2-dihydroquinoxalin-6-yl)urea]
The IC50 of the first is lower: 0.1 to 1 µM for the first, over 1 µM for the second.

Compared with `C[C@@H](c1cccc(OC2CCCC2)c1)n1c(=O)cnc2cc(NC(=O)NC(C)(C)C)ccc21` [Example 111, (S)-1-(tert-butyl)-3-(1-(1-(3-(cyclo-pentyloxy)phenyl)ethyl)-2-oxo-1,2-dihydroquinoxalin-6-yl)urea], `C[C@@H](c1cccc(OC2CCCCC2)c1)n1c(=O)cnc2cc(NC(=O)NC(C)(C)C)ccc21` [Example 115, (S)-1-(tert-butyl)-3-(1-(1-(3-(cyclohexyloxy)phenyl)ethyl)-2-oxo-1,2-dihydroquinoxalin-6-yl)urea] is lower in IC50: over 1 µM for the first, 0.1 to 1 µM for the second. The second is the more potent here.

`C[C@@H](c1cccc(C#CC(C)(C)O)c1)n1c(=O)cnc2cc(NC(=O)NC(C)(C)C)ccc21` [Example 113, (S)-1-(tert-butyl)-3-(1-(1-(3-(3-hydroxy-3-methylbut-1-yn-1-yl)phenyl)ethyl)-2-oxo-1,2-dihydroquinoxalin-6-yl)urea] and `C[C@@H](c1cccc(CCCC(C)(C)O)c1)n1c(=O)cnc2cc(NC(=O)NC(C)(C)C)ccc21` [Example 118, (S)-1-(tert-butyl)-3-(1-(1-(3-(4-hydroxy-4-methylpentyl)phenyl)ethyl)-2-oxo-1,2-dihydroquinoxalin-6-yl)urea] cannot be ordered by IC50: over 1 µM for the first, over 1 µM for the second.

First: C[C@@H](c1cccc(Oc2ccccc2)c1)n1c(=O)cnc2cc(NC(=O)NC(C)(C)C)ccc21 [Example 114, (S)-1-(tert-butyl)-3-(2-oxo-1-(1-(3-phenoxyphenyl)ethyl)-1,2-dihydroquinoxalin-6-yl)urea]
Second: C[C@@H](c1cccc(CCOc2cn[nH]c2)c1)n1c(=O)cnc2cc(NC(=O)NC(C)(C)C)ccc21 [Example 119, (S)-1-(1-(1-(3-(2-((1H-pyrazol-4-yl)oxy)ethyl)phenyl)ethyl)-2-oxo-1,2-dihydroquinoxalin-6-yl)-3-(tert-butyl)urea]
The IC50 of the first is lower: 0.1 to 1 µM for the first, over 1 µM for the second.

First: C[C@@H](c1cccc(OCC2CCOCC2)c1)n1c(=O)cnc2cc(NC(=O)NC(C)(C)C)ccc21 [Example 117, (S)-1-(tert-butyl)-3-(2-oxo-1-(1-(3-((tetrahydro-2H-pyran-4-yl)methoxy)phenyl)eth-yl)-1,2-dihydroquinoxalin-6-yl)urea]
Second: C[C@@H](c1cccc(N2CCCCC2)c1)n1c(=O)cnc2cc(NC(=O)NC(C)(C)C)ccc21 [Example 127, (S)-1-(tert-butyl)-3-(2-oxo-1-(1-(3-(piperidin-1-yl)phenyl)ethyl)-1,2-dihydroquinoxalin-6-yl)urea]
The IC50 of the first is higher: over 1 µM for the first, 0.1 to 1 µM for the second.

`C[C@@H](c1cccc(CCN(C)C(=O)C(C)(C)O)c1)n1c(=O)cnc2cc(NC(=O)NC(C)(C)C)ccc21` [Example 120, (S)-N-(3-(1-(6-(3-(tert-butyl)ureido)-2-oxoquinoxalin-1 (2H)-yl)ethyl)phenethyl)-2-hydroxy-N,2-dimethylpropanamide] and `C[C@@H](c1cccc(CCOCC(C)(C)O)c1)n1c(=O)cnc2cc(NC(=O)NC(C)(C)C)ccc21` [Example 121, (S)-1-(tert-butyl)-3-(1-(1-(3-(2-(2-hydroxy-2-methylpropoxy)ethyl)phenyl)ethyl)-2-oxo-1,2-dihydroquinoxalin-6-yl)urea] cannot be ordered by IC50: over 1 µM for the first, over 1 µM for the second.

First: C[C@@H](c1cccc2c1COCC2)n1c(=O)cnc2cc(NC(=O)NC(C)(C)C)ccc21 [Example 123, (S)-1-(tert-butyl)-3-(1-(1-(isochroman-8-yl)ethyl)-2-oxo-1,2-dihydroquinoxalin-6-yl)urea]
Second: C[C@@H](c1cccc2c1CCOC2)n1c(=O)cnc2cc(NC(=O)NC(C)(C)C)ccc21 [Example 124, (S)-1-(tert-butyl)-3-(1-(1-(isochroman-5-yl)ethyl)-2-oxo-1,2-dihydroquinoxalin-6-yl)urea]
The IC50 of the first is lower: 0.1 to 1 µM for the first, over 1 µM for the second.

For `C[C@@H](c1cccc2ccncc12)n1c(=O)cnc2cc(NC(=O)NC(C)(C)C)ccc21` [Example 126, (S)-1-(tert-butyl)-3-(1-(1-(isoquinolin-8-yl)ethyl)-2-oxo-1,2-dihydroquinoxalin-6-yl)urea], the IC50 was over 1 µM.
